Eight molecules from ChEMBL document CHEMBL5291721, “A preclinical secondary pharmacology resource illuminates target-adverse drug reaction associations of marketed drugs” (Nat Commun, 2023) can be followed below.

For assay [1], the target named is T1, 5-hydroxytryptamine receptor 2A (Homo sapiens, UniProt P28223). The class given is functional, cell-based.
The target in assay [2] is T2, Progesterone receptor (Homo sapiens, UniProt P06401).
T2 sequence (P06401 whole entry): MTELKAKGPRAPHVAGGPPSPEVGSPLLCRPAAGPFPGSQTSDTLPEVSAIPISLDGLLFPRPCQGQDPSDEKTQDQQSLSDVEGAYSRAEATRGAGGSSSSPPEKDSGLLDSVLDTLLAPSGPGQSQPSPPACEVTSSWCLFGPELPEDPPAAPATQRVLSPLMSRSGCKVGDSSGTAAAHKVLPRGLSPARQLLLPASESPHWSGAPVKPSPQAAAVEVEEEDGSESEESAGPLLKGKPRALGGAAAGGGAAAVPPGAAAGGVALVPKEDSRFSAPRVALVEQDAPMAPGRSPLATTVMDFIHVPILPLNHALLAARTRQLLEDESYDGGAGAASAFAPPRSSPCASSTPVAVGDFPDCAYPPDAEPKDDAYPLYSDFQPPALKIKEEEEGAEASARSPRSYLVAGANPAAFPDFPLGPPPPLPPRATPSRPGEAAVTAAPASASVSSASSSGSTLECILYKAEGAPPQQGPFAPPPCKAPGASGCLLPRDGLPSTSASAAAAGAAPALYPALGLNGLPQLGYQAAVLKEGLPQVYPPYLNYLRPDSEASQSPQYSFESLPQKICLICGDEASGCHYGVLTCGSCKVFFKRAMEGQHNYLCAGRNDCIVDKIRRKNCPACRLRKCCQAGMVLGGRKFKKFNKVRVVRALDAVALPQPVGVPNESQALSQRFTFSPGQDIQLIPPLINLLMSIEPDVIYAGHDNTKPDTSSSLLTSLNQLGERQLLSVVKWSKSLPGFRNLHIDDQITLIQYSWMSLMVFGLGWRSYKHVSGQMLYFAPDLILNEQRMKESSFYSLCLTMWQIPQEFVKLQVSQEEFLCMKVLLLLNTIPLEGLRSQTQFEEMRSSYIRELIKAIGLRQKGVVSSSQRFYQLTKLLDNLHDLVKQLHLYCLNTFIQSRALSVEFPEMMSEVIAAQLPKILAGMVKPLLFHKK
The class given is functional.

For assay [3], the target named is T2, Progesterone receptor. Format: functional. This is another data set of the same source.
Assay [4] deals with T3, Prostaglandin G/H synthase 1 (Rattus norvegicus, UniProt Q63921).
T3 sequence (Q63921 whole entry): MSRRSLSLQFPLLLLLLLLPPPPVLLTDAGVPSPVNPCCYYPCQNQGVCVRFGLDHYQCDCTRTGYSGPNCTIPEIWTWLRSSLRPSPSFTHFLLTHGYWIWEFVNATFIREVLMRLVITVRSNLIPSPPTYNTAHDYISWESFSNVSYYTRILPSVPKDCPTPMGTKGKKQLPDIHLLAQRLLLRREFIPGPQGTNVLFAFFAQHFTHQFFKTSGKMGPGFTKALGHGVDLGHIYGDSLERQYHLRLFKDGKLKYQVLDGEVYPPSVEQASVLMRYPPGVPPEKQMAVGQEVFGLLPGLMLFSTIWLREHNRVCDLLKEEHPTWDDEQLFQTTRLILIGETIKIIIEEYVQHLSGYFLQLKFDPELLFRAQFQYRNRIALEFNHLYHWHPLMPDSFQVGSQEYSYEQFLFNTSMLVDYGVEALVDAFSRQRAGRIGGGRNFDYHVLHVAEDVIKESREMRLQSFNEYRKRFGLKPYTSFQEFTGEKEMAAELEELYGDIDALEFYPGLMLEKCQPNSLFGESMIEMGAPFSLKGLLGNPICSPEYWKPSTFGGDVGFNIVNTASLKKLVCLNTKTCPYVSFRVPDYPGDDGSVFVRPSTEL
Format: functional.

For assay [5], the target named is T4, Gastrin/cholecystokinin type B receptor (Homo sapiens, UniProt P32239).
T4 sequence (P32239 whole entry): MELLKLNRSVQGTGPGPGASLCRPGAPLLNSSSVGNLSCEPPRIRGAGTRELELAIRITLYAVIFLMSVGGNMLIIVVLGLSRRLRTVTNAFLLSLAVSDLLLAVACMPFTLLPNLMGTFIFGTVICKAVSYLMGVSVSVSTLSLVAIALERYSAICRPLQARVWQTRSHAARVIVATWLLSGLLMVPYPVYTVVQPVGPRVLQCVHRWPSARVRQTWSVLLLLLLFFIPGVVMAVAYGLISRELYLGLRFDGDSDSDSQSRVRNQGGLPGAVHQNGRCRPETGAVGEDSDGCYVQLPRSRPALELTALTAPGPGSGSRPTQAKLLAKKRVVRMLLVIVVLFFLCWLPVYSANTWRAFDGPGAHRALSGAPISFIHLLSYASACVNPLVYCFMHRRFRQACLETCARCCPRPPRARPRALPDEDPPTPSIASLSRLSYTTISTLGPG

Assay [6] addresses T5, Type-1 angiotensin II receptor (Homo sapiens, UniProt P30556).
T5 sequence (P30556 whole entry): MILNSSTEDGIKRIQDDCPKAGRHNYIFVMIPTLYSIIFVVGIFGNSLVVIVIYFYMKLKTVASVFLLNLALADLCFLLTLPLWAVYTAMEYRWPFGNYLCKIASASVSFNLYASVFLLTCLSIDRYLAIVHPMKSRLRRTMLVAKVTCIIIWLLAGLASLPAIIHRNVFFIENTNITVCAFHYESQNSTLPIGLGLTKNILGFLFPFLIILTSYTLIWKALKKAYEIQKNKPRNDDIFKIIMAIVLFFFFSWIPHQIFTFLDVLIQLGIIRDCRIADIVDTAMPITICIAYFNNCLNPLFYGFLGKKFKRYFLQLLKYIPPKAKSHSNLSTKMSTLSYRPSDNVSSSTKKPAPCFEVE

For assay [7], the target named is T1, 5-hydroxytryptamine receptor 2A. Format: functional, cell-based. The source holds these as a separate data set.
Assay [8] addresses T6, Adenosine receptor A3 (Homo sapiens, UniProt P0DMS8).
T6 sequence (P0DMS8 whole entry): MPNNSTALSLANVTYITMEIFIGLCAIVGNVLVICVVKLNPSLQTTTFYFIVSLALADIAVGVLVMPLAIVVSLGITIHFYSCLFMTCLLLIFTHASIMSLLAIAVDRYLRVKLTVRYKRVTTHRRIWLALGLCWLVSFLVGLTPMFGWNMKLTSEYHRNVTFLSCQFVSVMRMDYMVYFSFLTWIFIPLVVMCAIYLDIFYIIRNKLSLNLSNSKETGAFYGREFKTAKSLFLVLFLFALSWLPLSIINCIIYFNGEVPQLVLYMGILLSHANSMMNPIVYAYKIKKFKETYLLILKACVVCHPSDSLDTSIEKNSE

Assay [9] addresses Voltage-dependent L-type calcium channel subunit alpha-1C (Rattus norvegicus, UniProt P22002). The class given is functional.

“And” between values parts separate entries of the source, which are not always exact repeats. Equal values may be shown once.
Further: assay procedure not described here.

Chain of Voltage-dependent L-type calcium channel subunit alpha-1C (P22002 whole entry): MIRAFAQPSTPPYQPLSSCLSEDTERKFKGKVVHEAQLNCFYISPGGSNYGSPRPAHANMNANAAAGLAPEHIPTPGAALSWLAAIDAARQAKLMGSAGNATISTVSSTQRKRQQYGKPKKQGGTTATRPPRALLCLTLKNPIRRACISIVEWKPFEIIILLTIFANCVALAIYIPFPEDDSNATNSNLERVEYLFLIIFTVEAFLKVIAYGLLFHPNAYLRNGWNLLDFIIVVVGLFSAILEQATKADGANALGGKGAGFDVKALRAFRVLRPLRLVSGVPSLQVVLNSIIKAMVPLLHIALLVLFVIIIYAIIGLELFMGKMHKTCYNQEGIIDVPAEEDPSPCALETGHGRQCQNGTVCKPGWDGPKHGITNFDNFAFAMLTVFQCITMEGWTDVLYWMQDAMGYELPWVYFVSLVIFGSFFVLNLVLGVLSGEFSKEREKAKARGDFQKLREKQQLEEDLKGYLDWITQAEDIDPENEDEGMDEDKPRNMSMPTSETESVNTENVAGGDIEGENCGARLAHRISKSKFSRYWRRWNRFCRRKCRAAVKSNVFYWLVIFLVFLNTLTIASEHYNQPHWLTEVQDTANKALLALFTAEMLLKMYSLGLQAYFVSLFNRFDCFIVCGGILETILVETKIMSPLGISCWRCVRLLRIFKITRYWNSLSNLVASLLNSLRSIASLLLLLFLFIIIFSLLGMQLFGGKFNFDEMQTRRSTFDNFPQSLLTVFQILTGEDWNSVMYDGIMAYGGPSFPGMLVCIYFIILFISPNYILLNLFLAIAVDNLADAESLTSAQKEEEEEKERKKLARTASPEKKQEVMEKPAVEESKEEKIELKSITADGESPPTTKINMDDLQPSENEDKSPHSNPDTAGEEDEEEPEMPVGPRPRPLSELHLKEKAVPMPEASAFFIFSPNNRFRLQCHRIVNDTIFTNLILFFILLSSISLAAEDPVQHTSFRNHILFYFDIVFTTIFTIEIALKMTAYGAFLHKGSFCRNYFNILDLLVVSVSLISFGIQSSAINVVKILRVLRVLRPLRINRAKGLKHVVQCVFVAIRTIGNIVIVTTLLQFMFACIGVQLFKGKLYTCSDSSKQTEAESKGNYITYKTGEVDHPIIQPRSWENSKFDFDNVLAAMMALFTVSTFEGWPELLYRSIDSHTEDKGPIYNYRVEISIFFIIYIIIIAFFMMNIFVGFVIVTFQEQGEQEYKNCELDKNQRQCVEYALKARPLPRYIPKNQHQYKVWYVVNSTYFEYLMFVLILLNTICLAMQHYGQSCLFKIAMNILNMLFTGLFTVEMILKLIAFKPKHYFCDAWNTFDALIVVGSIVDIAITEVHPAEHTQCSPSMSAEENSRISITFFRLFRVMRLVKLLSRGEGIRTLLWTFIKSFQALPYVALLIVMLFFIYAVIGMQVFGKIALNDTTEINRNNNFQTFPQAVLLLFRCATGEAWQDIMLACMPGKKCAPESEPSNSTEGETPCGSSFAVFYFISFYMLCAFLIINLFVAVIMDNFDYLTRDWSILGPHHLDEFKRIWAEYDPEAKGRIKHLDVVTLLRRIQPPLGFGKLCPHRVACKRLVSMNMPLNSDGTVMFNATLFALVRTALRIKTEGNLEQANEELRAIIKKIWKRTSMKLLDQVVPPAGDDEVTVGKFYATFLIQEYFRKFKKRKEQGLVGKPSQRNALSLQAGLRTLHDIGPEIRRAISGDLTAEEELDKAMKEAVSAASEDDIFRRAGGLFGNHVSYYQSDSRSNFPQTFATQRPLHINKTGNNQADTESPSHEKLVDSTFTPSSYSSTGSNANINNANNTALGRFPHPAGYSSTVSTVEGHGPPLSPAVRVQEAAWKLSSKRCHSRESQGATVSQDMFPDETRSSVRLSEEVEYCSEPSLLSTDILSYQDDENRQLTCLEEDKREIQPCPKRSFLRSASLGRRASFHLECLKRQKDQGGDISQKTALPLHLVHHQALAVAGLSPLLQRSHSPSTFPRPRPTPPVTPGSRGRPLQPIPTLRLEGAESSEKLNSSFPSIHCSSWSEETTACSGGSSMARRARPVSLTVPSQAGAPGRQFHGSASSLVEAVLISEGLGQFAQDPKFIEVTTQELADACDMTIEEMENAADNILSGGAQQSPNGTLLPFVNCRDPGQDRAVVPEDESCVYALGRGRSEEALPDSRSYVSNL
T1 sequence (P28223 whole entry): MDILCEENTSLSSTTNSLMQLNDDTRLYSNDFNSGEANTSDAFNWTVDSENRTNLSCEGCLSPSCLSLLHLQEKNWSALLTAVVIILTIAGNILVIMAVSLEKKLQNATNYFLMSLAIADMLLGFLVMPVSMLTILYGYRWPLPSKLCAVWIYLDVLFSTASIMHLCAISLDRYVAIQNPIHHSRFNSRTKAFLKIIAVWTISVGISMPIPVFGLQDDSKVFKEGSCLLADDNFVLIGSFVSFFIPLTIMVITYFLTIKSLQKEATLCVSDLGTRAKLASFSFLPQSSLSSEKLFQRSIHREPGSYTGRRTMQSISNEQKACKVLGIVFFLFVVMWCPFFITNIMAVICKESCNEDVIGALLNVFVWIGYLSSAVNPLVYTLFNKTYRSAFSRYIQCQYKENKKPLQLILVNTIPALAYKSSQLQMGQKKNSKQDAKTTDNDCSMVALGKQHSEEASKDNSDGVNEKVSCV

As to `CCOC(=O)[C@H](CCc1ccccc1)N[C@@H](C)C(=O)N1C(=O)N(C)C[C@H]1C(=O)O`, the AC50 in assay [1] is more than 30 µM; in assay [2], more than 30 µM; in assay [3] it was more than 30 µM; in [4], 12 µM; in assay [5], more than 30 µM; in [6], more than 30 µM. Also, the AC50 in assay [7], in assay [8] and in assay [9] was more than 30 µM throughout.

As for `O=C(O)CCCCCCNC1c2ccccc2CCc2ccccc21` [AMINEPTINE], the AC50 in assay [1], in assay [2], in [3], in assay [4], in assay [5] and in [6] was more than 30 µM each time. Further, the AC50 in assay [7], in [8] and in [9] was more than 30 µM throughout.

For `COc1ccccc1OCCNCC(O)c1ccc(C)c(S(N)(=O)=O)c1` (configuration not stated) [AMOSULALOL], the AC50 in assay [1], in [2], in assay [3], in [4], in [5] and in assay [6] was more than 30 µM each time. Moreover, the figures for the AC50 in assay [7], in assay [8] and in [9] were 7.7 µM, more than 30 µM and more than 30 µM, respectively.

For the molecule `O=C(O)C1=C(CSc2nnnn2CS(=O)(=O)O)CS[C@@H]2[C@H](NC(=O)[C@H](O)c3ccccc3)C(=O)N12` [CEFONICID], the AC50 in assay [1], in assay [2], in [3], in [4], in assay [5] and in [6] was more than 30 µM in each case. Also, the AC50 in assay [7], in assay [8] and in assay [9] was more than 30 µM in each case.

For the molecule `Cc1cc(O)c(C(=O)N[C@@H](C(=O)N[C@@H]2C(=O)N3C(C(=O)O)=C(CSc4nnnn4C)CS[C@H]23)c2ccc(O)cc2)cn1` [CEFPIRAMIDE], the AC50 in [1], in assay [2], in assay [3], in assay [4], in [5] and in assay [6] was more than 30 µM each time. The AC50 in assay [7], in [8] and in assay [9] was more than 30 µM each time.

Consider `Nc1nc(/C(=C/CC(=O)O)C(=O)N[C@@H]2C(=O)N3C(C(=O)O)=CCS[C@H]23)cs1` [CEFTIBUTEN], for which the AC50 in [1], in assay [2], in assay [3], in [4], in [5] and in [6] was more than 30 µM throughout. For the same molecule, the AC50 in assay [7], in [8] and in [9] was more than 30 µM throughout.

As to `CCCCCCOc1ccccc1C(N)=O` [EXALAMIDE], the AC50 in [1], in assay [2], in assay [3], in assay [4], in assay [5] and in [6] was more than 30 µM in each case. The AC50 in assay [7], in assay [8] and in assay [9] was more than 30 µM each time.

With `CCc1c(Cl)c(O)c(Cl)c(O)c1C(=O)O[C@H]1[C@H](O)[C@H](OC)[C@H](OC/C2=C\C=C\C[C@H](O)/C(C)=C/[C@H](CC)[C@@H](O[C@@H]3OC(C)(C)[C@@H](OC(=O)C(C)C)[C@H](O)[C@@H]3O)/C(C)=C/C(C)=C/C[C@@H]([C@@H](C)O)OC2=O)O[C@@H]1C` [FIDAXOMICIN], the AC50 in assay [1] was more than 30 µM; in assay [2] it was more than 30 µM; in assay [3] it was more than 30 µM; in [4], more than 30 µM; in assay [5], 7.9 µM; in assay [6], more than 30 µM. Besides, the AC50 in assay [7] was 18 µM; in [8] it was 17.1 µM and > 30 µM; in assay [9], more than 10 µM.

A word on the AC50: it is the concentration giving half of the maximal activity seen.
